Inhibition data for nine compounds are collected here from patent US20230072683A1, “PYRIDO-PYRIMIDIN DERIVATIVES AND PHARMACEUTICAL COMPOSITION, FOR USE IN PREVENTING OR TREATING PI3 KINASE RELATED DISEASES, COMPRISING SAME AS ACTIVE INGREDIENT” (BORYUNG PHARMACEUTICAL CO., LTD, priority 2019, published 2023).

Assay [1] concerns the target PI3K-δ (PI3K(p1108/p857) (h)) (Homo sapiens, UniProt O00329). Kind of assay: Evaluation of inhibitory activity against PI3K-δ (HTRF kinase assay). It counts as biochemical. Conditions: compound at 0.1 μM; read-out: EXP_VALUE(% Inhibition) PI3K-δ 0.1 μM. Summed up:
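HTRF read-out (665/620 nm ratio ×10000) used Eu-labelled anti-GST, GST-tagged GRP1 PH domain and streptavidin-allophycocyanin after EDTA/PIP3 stop.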
Background: In TR-FRET formats the signal depends on donor and acceptor labels being close together.

The target in assay [2] is DNA-PK(h) (Homo sapiens, UniProt P78527). As to the kind of experiment: Evaluation of inhibitory activity against DNA-PK (HTRF kinase assay, GST-cMyc-p53 substrate). Type of assay: biochemical. Conditions: compound at 0.1 μM; read-out: EXP_VALUE(% Inhibition) DNA-PK(h) 0.1 μM. In a few lines: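 Human DNA-PK with 50 μM GST-cMyc-p53 substrate; reaction started with Mg/ATP, run 30 min at room temperature, stopped with EDTA. Phospho-Ser15 p53 detected by HTRF (Eu anti-phospho-Ser15, d2 anti-GST), signal = 10000×(Em 665/Em 620).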

PI3K-δ (PI3K(p1108/p857) (h)), sequence (O00329 whole entry, the tested form may be a part): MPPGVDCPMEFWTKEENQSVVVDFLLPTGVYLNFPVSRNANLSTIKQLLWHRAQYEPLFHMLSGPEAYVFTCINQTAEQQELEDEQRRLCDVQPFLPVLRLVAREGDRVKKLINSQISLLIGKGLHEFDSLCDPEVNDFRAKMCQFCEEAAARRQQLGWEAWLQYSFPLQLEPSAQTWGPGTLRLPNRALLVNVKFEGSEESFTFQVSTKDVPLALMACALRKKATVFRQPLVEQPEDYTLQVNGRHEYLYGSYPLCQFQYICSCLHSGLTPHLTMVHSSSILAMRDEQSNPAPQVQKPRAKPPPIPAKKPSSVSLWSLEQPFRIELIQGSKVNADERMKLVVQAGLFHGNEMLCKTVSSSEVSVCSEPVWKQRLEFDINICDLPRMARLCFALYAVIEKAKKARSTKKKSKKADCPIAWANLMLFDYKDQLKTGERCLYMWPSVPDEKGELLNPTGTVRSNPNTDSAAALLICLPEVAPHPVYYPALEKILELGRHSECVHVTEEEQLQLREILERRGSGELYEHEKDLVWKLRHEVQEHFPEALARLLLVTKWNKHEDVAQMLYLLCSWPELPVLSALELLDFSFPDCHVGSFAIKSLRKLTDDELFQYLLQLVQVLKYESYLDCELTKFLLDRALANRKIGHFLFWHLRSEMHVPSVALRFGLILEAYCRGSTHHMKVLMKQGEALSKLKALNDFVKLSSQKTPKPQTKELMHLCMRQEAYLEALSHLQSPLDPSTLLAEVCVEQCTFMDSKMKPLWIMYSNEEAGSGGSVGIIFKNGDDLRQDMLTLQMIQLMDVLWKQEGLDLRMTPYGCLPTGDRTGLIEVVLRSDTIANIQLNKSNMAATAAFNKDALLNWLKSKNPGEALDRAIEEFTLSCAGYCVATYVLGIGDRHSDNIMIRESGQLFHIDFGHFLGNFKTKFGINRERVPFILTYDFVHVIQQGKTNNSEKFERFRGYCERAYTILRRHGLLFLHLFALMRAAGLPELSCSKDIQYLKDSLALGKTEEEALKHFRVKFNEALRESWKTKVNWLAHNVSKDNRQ
PI3K-δ (PI3K(p1108/p857) (h)), sequence (P27986 whole entry partner, the tested form may be a part): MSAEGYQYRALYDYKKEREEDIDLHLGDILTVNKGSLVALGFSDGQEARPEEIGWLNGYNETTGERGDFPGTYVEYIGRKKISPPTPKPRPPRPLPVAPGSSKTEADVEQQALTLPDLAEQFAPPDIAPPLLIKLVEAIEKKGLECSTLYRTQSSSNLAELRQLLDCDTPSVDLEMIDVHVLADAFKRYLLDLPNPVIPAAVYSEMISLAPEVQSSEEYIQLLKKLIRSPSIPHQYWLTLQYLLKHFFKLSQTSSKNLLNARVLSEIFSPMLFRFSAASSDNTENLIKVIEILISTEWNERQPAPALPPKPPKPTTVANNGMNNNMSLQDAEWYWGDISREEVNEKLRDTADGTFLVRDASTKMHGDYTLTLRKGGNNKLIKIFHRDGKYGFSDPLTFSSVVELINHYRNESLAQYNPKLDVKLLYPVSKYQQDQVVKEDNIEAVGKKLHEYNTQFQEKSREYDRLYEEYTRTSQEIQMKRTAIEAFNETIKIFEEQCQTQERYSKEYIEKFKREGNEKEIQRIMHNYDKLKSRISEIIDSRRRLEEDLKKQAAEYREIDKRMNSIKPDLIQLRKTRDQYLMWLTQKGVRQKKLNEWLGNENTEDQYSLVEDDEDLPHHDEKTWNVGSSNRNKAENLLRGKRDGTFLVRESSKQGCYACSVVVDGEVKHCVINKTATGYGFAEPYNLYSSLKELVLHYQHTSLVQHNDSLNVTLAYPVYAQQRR

The inhibition is how much of the control response was suppressed. Consider `C[C@H](Nc1ncnc2[nH]ccc(=O)c12)c1c(Cl)c2cccc(Oc3ccncc3)c2c(=O)n1-c1ccccc1` [Example 428, (S)-4-((1-(4-chloro-1-oxo-2-phenyl-8-(pyridin-4-yloxy)-1,2-dihydroisoquinolin-3-yl)ethyl)amino)pyrido[2,3-d]pyrimidin-5(8H)-one], for which the results for the inhibition at 0.1 µM in assay [1] and in assay [2] were 86% and 13%, respectively.

`C[C@H](Nc1ncnc2[nH]ccc(=O)c12)c1c(Cl)c2cccc(OCc3ccncc3)c2c(=O)n1-c1ccccc1` [Example 429, (S)-4-((1-(4-chloro-1-oxo-2-phenyl-8-(pyridin-4-ylmethoxy)-1,2-dihydroisoquinolin-3-yl)ethyl)amino)pyrido[2,3-d]pyrimidin-5(8H)-one]: the results for the inhibition at 0.1 µM in assay [1] and in assay [2] were 47% and 63%, respectively.

On to `C[C@H](Nc1ncnc2[nH]ccc(=O)c12)c1c(Cl)c2cccc(OCc3ccccn3)c2c(=O)n1-c1ccccc1` [Example 430, (S)-4-((1-(4-chloro-1-oxo-2-phenyl-8-(pyridin-2-ylmethoxy)-1,2-dihydroisoquinolin-3-yl)ethyl)amino)pyrido[2,3-d]pyrimidin-5(8H)-one], for which the inhibition at 0.1 µM in assay [1] was 44%; in assay [2], 68%.

Consider `C[C@H](Nc1ncnc2[nH]ccc(=O)c12)c1c(Cl)c2cccc([S+]([O-])C3COC3)c2c(=O)n1-c1ccccc1` (stereo partly drawn) [Example 431, 4-(((1S)-1-(4-chloro-8-(oxetan-3-ylsulfinyl)-1-oxo-2-phenyl-1,2-dihydroisoquinolin-3-yl)ethyl)amino)pyrido[2,3-d]pyrimidin-5(8H)-one], for which the inhibition at 0.1 µM is 32% in assay [1] and 57% in assay [2].

Consider `C[C@H](Nc1ncnc2[nH]ccc(=O)c12)c1c(Cl)c2cccc(S(=O)(=O)C3COC3)c2c(=O)n1-c1ccccc1` [Example 432, (S)-4-((1-(4-chloro-8-(oxetan-3-ylsulfonyl)-1-oxo-2-phenyl-1,2-dihydroisoquinolin-3-yl)ethyl)amino)pyrido[2,3-d]pyrimidin-5(8H)-one], for which the results for the inhibition at 0.1 µM in assay [1] and in assay [2] were 87% and 47%, respectively.

For the compound `C[C@H](Nc1ncnc2[nH]ccc(=O)c12)c1c(Cl)c2cccc(S(=O)(=O)C(C)(C)C)c2c(=O)n1-c1ccccc1` [Example 433, (S)-4-((1-(8-(tert-butylsulfonyl)-4-chloro-1-oxo-2-phenyl-1,2-dihydroisoquinolin-3-yl)ethyl)amino)pyrido[2,3-d]pyrimidin-5(8H)-one], the figures for the inhibition at 0.1 µM in assay [1] and in assay [2] were 8% and 24%, respectively.

`CCSc1cccc2c(Cl)c([C@H](C)Nc3ncnc4[nH]ccc(=O)c34)n(-c3ccccc3)c(=O)c12` [Example 434, (S)-4-((1-(4-chloro-8-(ethylthio)-1-oxo-2-phenyl-1,2-dihydroisoquinolin-3-yl)ethyl)amino)pyrido[2,3-d]pyrimidin-5(8H)-one]: the inhibition at 0.1 µM in assay [1] turned out to be 8%; in assay [2] it was 32%.

For the compound `CC[S@@](=N)(=O)c1cccc2c(Cl)c([C@H](C)Nc3ncnc4[nH]ccc(=O)c34)n(-c3ccccc3)c(=O)c12` [Example 435, 4-(((S)-1-(4-chloro-8-((R)-ethylsulfonimidoyl)-1-oxo-2-phenyl-1,2-dihydroisoquinolin-3-yl)ethyl)amino)pyrido[2,3-d]pyrimidin-5(8H)-one], the inhibition at 0.1 µM in assay [1] was found to be 24%; in assay [2] it was 18%.

Take `CC[S@](=N)(=O)c1cccc2c(Cl)c([C@H](C)Nc3ncnc4[nH]ccc(=O)c34)n(-c3ccccc3)c(=O)c12` [Example 436, 4-(((S)-1-(4-chloro-8-((S)-ethylsulfonimidoyl)-1-oxo-2-phenyl-1,2-dihydroisoquinolin-3-yl)ethyl)amino)pyrido[2,3-d]pyrimidin-5(8H)-one]: the inhibition at 0.1 µM in assay [1] worked out at 7%; in assay [2], 9%.
